Data taken from US9701618B2, “Cannabidiol quinone derivatives” (VIVACELL BIOTECHNOLOGY ESPAÑA S.L., priority 2014, dated 2017).
Entries after “also recorded” stand apart in the source; their conditions may differ.

Tests used:
PPARg [1] = assay: PPARg transactivation assay (GAL4-PPARg/GAL4-luc) in HEK-293 and NIH-3T3 cells; type: cell-based, human; details: for PPARg transactivation (luciferase activity): treated 6 hours, compared with untreated cells
Method: The concentration of the tested compound (μM) is shown at the x-axis and the PPARg activation fold is shown at the y-axis. […]. Fold activation level was calculated, taking the control sample (−), without the presence of any PPARg agonist or activating agent, as reference. Data are expressed as mean±S.D. of at least three independent experiments.
To investigate the biological activities of the novel compounds we performed PPARg transactivation assays in HEK-293 cells and in NIH-3T3 fibroblasts cells.
HEK293T cells and human primary fibroblasts cells were maintained at 37° C. in a humidified atmosphere containing 5% CO2 in DMEM supplemented with 10% fetal calf serum (FBS), and 1% (v/v) penicillin/streptomycin. Rosiglitazone was purchased from Cayman Chemical Company (Ann Arbor, Mich., USA). All other reagents were from Sigma Co (St Louis, Mo., USA). HEK293T cells (2×10^3/well) (FIGS. 1A, 1B and 1C) or NIH-3T3 cells (5×10^3/well) (FIG. 2) were seeded in BD Falcon™ White with Clear Bottom 96-well Microtest™ Optilux™ Plate for 24 hours. Afterwards, cells were transiently co-transfected with the expression vector GAL4-PPARγ and the luciferase reporter vector GAL4-luc using Roti©-Fect (Carl Roth, Karlsruhe, Germany) following the manufacturer's instructions. Twenty-four h post-transfection, cells were pretreated with increasing doses of the compounds for 6 hours. Then, the cells were lysed in 25 mM Tris-phosphate pH 7.8, 8 mM MgCl2, 1 mM DTT, 1% Triton X-100, and 7% glycerol. Luciferase activity was measured in the cell lysate using a TriStar LB 941 multimode microplate reader (Berthold) and following the instructions of the Luciferase Assay Kit (Promega, Madison, Wis., USA). Protein concentration was measured by the Bradford assay (Bio-Rad, Richmond, Calif., USA). The background obtained with the lysis buffer was subtracted in each experimental value and the specific transactivation expressed as a fold induction over untreated cells. All the experiments were repeated at least three times. The plasmids used were Gal4-hPPARgamma (plasmid name: pCMV-BD-hPPARg, Sinal Laboratory, Dept. of Pharmacology, Dalhousie University) and Gal4 luc reporter plasmid that includes five Gal4 DNA binding sites fused to the luciferase gene. […]. Data are given as means with deviation standard error bars of three replicates. […].

Jurkat cells [2] = assay: ROS generation (H2DCF-DA, flow cytometry); details: 6 hours, increasing concentrations
NIH-3T3 cells = assay: TGFb-induced collagen production, Sirius Red-Fast Green method; type: cell-based; details: 1 hour pre-incubation, TGFb 50 ng/ml 24 hours
Method: The production of collagen was carried out using the Sirius Red-Fast Green method, designed to quantify the amount of collagen and non-collagen proteins in cell pellets. The collagen production was determined at 540 nm and 605 nm in a Genesis 10 UV scanning spectrofluorometer (Thermo Fisher Scientific). To calculate the amounts of collagen, first, we corrected the OD 540 value by subtracting the contribution by Fast Green, which interfere in the absorbance at 540 nm. Fast Green contributes 29.1% of the OD 540 value. The Color equivalence is 37.8 for collagen and 2.04 for non-collagen proteins at OD 540 and […], respectively. Collagen(pg/100 μl cell pellet)={[OD 540−(OD 605×0.291)]/37.8×1000}×10^6.
The experiments were repeated three times, and the results were expressed as a fold induction over untreated cells.
The production of collagen was carried out using the Sirius Red-Fast Green method, designed to quantify the amount of collagen and non-collagen proteins in cell pellets. NIH-3T3 cells were seeded at a density of 5×10^4/well in 24 well plates and they were incubated overnight at 37° C. to allow cell attachment. Next, cells were pre-incubated 1 hour with the indicated concentrations of compounds III, V, VIII and X and TGFb (50 ng/ml) during 24 hours. After the treatment, the cell pellets were extracted overnight at 4° C. with 100 μl of 0.5M acetic acid. Then, 1 ml of the dye solution (0.1% Sirius Red and 0.1% Fast Green dissolved in saturated picric acid) was added to the cell pellets and mixed gently at room temperature for 30 minutes. Next, samples were centrifuged at 10,000 g for 5 minutes to pellet the collagen. The supernatants were carefully removed without disturbing the pellet and 1 ml of 0.1 M hydrochloric acid was added to each tube to remove unbound dye. Samples were centrifuged at 10,000 g for 5 minutes and 1 ml of 0.5 M sodium hydroxide was added to each tube and vortex vigorously to release the bound dye. Samples were centrifuged at 2500 g for 5 minutes to re-pellet any cell debris.
The collagen production was determined and the results were expressed as a fold induction over untreated cells.

Jurkat cells [3] = assay: Mitochondrial membrane potential (MitoTracker Red CMXR, flow cytometry); type: cell-based; details: 2 hours, increasing concentrations
PPARg [4] = assay: Inhibition of Rosiglitazone-induced PPARg activation in HEK-293 cells; type: cell-based, human; details: pretreated 30 min, then RSZ 1 μM for 6 hours
Method: (A) HEK-293 cells were co-transfected with GAL4-PPARg and GAL4-luc. […] Protein lysates were prepared and analyzed for luciferase activity. The concentration of the tested compound (μM) is shown at the x-axis and the PPARg activation fold is shown at the y-axis.
(A) HEK293T cells were maintained at 37° C. in a humidified atmosphere containing 5% CO2 in DMEM supplemented with 10% fetal calf serum (FBS), and 1% (v/v) penicillin/streptomycin. Rosiglitazone was purchased from Cayman Chemical Company (Ann Arbor, Mich., USA). HEK293T cells (2×10^3/well) (FIG. 3A) were seeded in BD Falcon™ White with Clear Bottom 96-well Microtest™ Optilux™ Plate for 24 hours. Afterwards, cells were transiently co-transfected with the expression vector GAL4-PPARγ and the luciferase reporter vector GAL4-luc using Roti©-Fect (Carl Roth, Karlsruhe, Germany) following the manufacturer's instructions. Twenty-four h post-transfection, cells were pretreated with increasing doses of the compounds for 30 min and then stimulated with RSZ (1 μM) for 6 hours.

human COL1A2 promoter = assay: TGFb-induced collagen type I gene transcription (COL1A2-Luc) in NIH-3T3 fibroblasts; type: cell-based; details: 30 min pre-incubation, TGFb 50 ng/ml 6 h
Method: To investigate the potential anti-fibrotic activity of CBD-derivatives NIH-3T3 fibroblast cells were transiently transfected with the plasmid COL1A2-Luc plasmid by using Roti©-Fect according to the manufacturer instructions. The COL1A2-luciferase construct contains sequences from −353 to +58 bp of the human COL1A2 promoter fused to the luciferase reporter gene (pGL2 basic, Promega, Madison, Wis.). […] Protein lysates were prepared and analyzed for luciferase activity. The concentration of the tested compound (μM) is shown at the x-axis and the percentage of COL1A2 activation is shown at the y-axis considering 100% activation the effect of TGFb in the absence of the compounds. Data are expressed as mean±SD of at least three independent experiments.
Cultured NIH-3T3 fibroblast cells were transiently transfected with the plasmid COL1A2-Luc plasmid that contains sequences from −353 to +58 bp of the human COL1A2 promoter fused to the luciferase reporter gene. Twenty-four hour later the cells were incubated with compounds III, V, VIII and X (as examples) for 30 min and treated with TGFb (50 ng/ml) for 6 h. Protein lysates were prepared and analyzed for luciferase activity.

Structure (SMILES)	PPARg transactivation (luciferase activity) (PPARg [1])	intracellular ROS levels (Jurkat cells [2])	TGFb-induced collagen production (NIH-3T3 cells)	mitochondrial membrane potential (Jurkat cells [3])	RSZ-induced PPARg transactivation (PPARg [4])	TGFb-induced collagen type I gene transcription (human COL1A2 promoter)	increase of PPARg activity (fold induction) (PPARg [1]; 1 μM concentration)
C=C(C)[C@@H]1CCC(C)=C[C@H]1C1=C(O)C(=O)C(CCCCC)=C(NCC)C1=O [Compound II, (1′R,6′R)-3-(Ethylamine)-6-hydroxy-3′-methyl-4-pentyl-6′-(prop-1-en-2-yl)-[1,1′-bi(cyclohexane)]-2′,3,6-triene-2,5-dione]	the most active compounds	–	–	–	–	–	–
C=C(C)[C@@H]1CCC(C)=C[C@H]1C1=C(O)C(=O)C(CCCCC)=C(NCCCCC)C1=O [Compound III, (1′R,6′R)-3-(Pentylamine)-6-Hydroxy-3′-methyl-4-pentyl-6′-(prop-1-en-2-yl)-[1,1′-bi(cyclohexane)]-2′,3,6-triene-2,5-dione]	the most active compounds	not reactive; also recorded: unable to induce ROS accumulation significantly	clearly inhibited	did not induce a loss	decrease	clearly inhibited	–
C=C(C)[C@@H]1CCC(C)=C[C@H]1C1=C(O)C(=O)C(CCCCC)=C(NCC(C)C)C1=O [Compound IV, (1′R,6′R)-3-(Isobutylamine)-6-Hydroxy-3′-methyl-4-pentyl-6′-(prop-1-en-2-yl)-[1,1′-bi(cyclohexane)]-2′,3,6-triene-2,5-dione]	the most active compounds	–	–	–	–	–	–
C=C(C)[C@@H]1CCC(C)=C[C@H]1C1=C(O)C(=O)C(CCCCC)=C(NCCCC)C1=O [Compound V, (1′R,6′R)-3-(Butylamine)-6-hydroxy-3′-methyl-4-pentyl-6′-(prop-1-en-2-yl)-[1,1′-bi(cyclohexane)]-2′,3,6-triene-2,5-dione]	the most active compounds	not reactive; also recorded: unable to induce ROS accumulation significantly	clearly inhibited	did not induce a loss	decrease	clearly inhibited	–
C=C(C)[C@@H]1CCC(C)=C[C@H]1C1=C(O)C(=O)C(CCCCC)=C(NC(C)C)C1=O [Compound VII, (1′R,6′R)-3-(Isopropylamine)-6-Hydroxy-3′-methyl-4-pentyl-6′-(prop-1-en-2-yl)-[1,1′-bi(cyclohexane)]-2′,3,6-triene-2,5-dione]	the most active compounds	not reactive	–	did not induce a loss	–	–	–
C=C(C)[C@@H]1CCC(C)=C[C@H]1C1=C(O)C(=O)C(CCCCC)=C(NCc2ccccc2)C1=O [Compound VIII, (1′R,6′R)-3-(Benzylamine)-6-hydroxy-3′-methyl-4-pentyl-6′-(prop-1-en-2-yl)-[1,1′-bi(cyclohexane)]-2′,3,6-triene-2,5-dione]	the most active compounds	–	clearly inhibited	–	decrease	clearly inhibited	–
C=C(C)[C@@H]1CCC(C)=C[C@H]1C1=C(O)C(=O)C(CCCCC)=C(NCCC(C)C)C1=O [Compound X, (1′R,6′R)-3-(Isopentylamine-6-Hydroxy)-3′-methyl-4-pentyl-6′-(prop-1-en-2-yl)-[1,1′-bi(cyclohexane)]-2′,3,6-triene-2,5-dione]	–	not reactive; also recorded: unable to induce ROS accumulation significantly	clearly inhibited	did not induce a loss	decrease	clearly inhibited	–
C=C(C)[C@@H]1CCC(C)=C[C@H]1C1=C(O)C(=O)C(CCCCC)=C(C(=O)OC/C=C(\C)CCC=C(C)C)C1=O [Compound XIII, (E)-3,7-dimethylocta-2,6-dienyl-4-hydroxy-5-((1R,6R)-3-methyl-6-(prop-1-en-2-yl)cyclohex-2-enyl)-3,6-dioxo-2-pentylcyclohexa-1,4-dienecarboxylate]	–	–	–	–	decrease	–	–
CN(CCOc1ccc(CC2SC(=O)NC2=O)cc1)c1ccccn1 (stereo not shown) [Rosiglitazone, reference compound]	–	–	–	–	–	–	more than 100 times
